The source of these data is PubChem BioAssay (NCI).

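Briefly, cells in 96-well plates were exposed to five compound concentrations for 48 h, and endpoints were estimated by linear interpolation. Definition used: TGI = concentration required for complete inhibition of growth.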 Where a SMILES comes first, the peptide text is derived from it. The star is where a group is joined. Boc = CC(C)(C)OC(=O)*

Test systems include A549 NSCLC; UO-31 renal; MCF7 breast; HOP-92 NSCLC; ACHN renal; SF-268 CNS; SF-539 CNS; MALME-3M melanoma; TK-10 renal; SNB-19 CNS.
Holding throughout (test): inhibition of tumour cell growth, NCI panel, 48 h

For `O=C(NC(=S)Nc1ccc([N+](=O)[O-])cc1)c1ccc2c(c1)Sc1ccccc1O2`, the TGI in the test with A549 NSCLC, with UO-31 renal, in the test with MCF7 breast, in the test with HOP-92 NSCLC, in the test on ACHN renal and in the test with SF-268 CNS was over 100 µM in each case. In addition, the TGI in the test with SF-539 CNS, in the test on MALME-3M melanoma, in the test with TK-10 renal and in the test with SNB-19 CNS was over 100 µM each time.

For the compound `COc1ccc(-n2c(SC(CN3CCOCC3)CN3CCCC3=O)nc3ccccc3c2=O)cc1` (stereo not given), the TGI with A549 NSCLC, in the test with UO-31 renal, in the test with MCF7 breast, with HOP-92 NSCLC, in the test on ACHN renal and in the test on SF-268 CNS was over 100 µM each time. Further, the TGI in the test with SF-539 CNS, in the test on MALME-3M melanoma, in the test with TK-10 renal and in the test with SNB-19 CNS was over 100 µM in each case.

For the compound `CC#C[C@]1(O)CCC2[C@@H]3CCC4=CC(=O)CCC4=C3[C@@H](c3ccc(N(C)C)cc3)C[C@@]21C` (stereo not given in full), the TGI in the test on A549 NSCLC was over 100 µM; in the test on UO-31 renal, 28.2 µM; in the test on MCF7 breast, 20.8 µM; in the test with HOP-92 NSCLC it was 8.55 µM; in the test with ACHN renal it was over 100 µM; in the test with SF-268 CNS, 27.6 µM. The TGI is 28.5 µM with SF-539 CNS, 42 µM with MALME-3M melanoma, 43.1 µM in the test with TK-10 renal and 98.3 µM with SNB-19 CNS.

Regarding `Oc1c(CN2CCCC2)ccc2cccnc12`, the TGI is over 100 µM in the test with A549 NSCLC; 14.1 µM in the test with UO-31 renal; over 100 µM with MCF7 breast; over 100 µM in the test on HOP-92 NSCLC; 59.5 µM in the test on ACHN renal; over 100 µM in the test on SF-268 CNS. The TGI was over 78.5 µM in the test on SF-539 CNS, over 100 µM in the test on MALME-3M melanoma, 88.7 µM in the test with TK-10 renal and over 31.6 µM with SNB-19 CNS.

For `CCOP(=O)(CCCC(O)CNc1nc(N)nc(Cl)c1N=Nc1ccc(Cl)cc1)OCC` (stereo not given), the TGI is 23.9 µM in the test on A549 NSCLC; 16.1 µM in the test on UO-31 renal; 27 µM in the test on MCF7 breast; 25.8 µM with HOP-92 NSCLC; 15.4 µM in the test with ACHN renal; 18.1 µM in the test on SF-268 CNS. Further, the TGI with SF-539 CNS was determined as 23 µM; with MALME-3M melanoma, 20.9 µM; in the test with TK-10 renal it was 13.6 µM; with SNB-19 CNS it was 22.8 µM.

On to `COc1ccc2nc3c([N+](=O)[O-])ccc(NCCN(C)C)c3c(N)c2c1`, for which the TGI was 3.29 µM in the test on A549 NSCLC; 2.87 µM with UO-31 renal; 1.1 µM with MCF7 breast; 2.54 µM with HOP-92 NSCLC; 2.64 µM in the test with ACHN renal; 3.12 µM with SF-268 CNS. Moreover, the TGI worked out at 3.05 µM in the test with SF-539 CNS, 3.14 µM with MALME-3M melanoma, 3.09 µM with TK-10 renal and 3.98 µM with SNB-19 CNS.

`Clc1ccc(CCNC2(c3cc4ccccc4s3)CCCCC2)cc1Cl`: the TGI in the test on A549 NSCLC is over 100 µM; in the test with UO-31 renal, 36.7 µM; in the test on MCF7 breast, 33.5 µM; with HOP-92 NSCLC, 29.8 µM; in the test with ACHN renal, 63.3 µM; with SF-268 CNS, over 100 µM. The TGI in the test with SF-539 CNS was 46.7 µM; with MALME-3M melanoma, 36.9 µM; in the test on TK-10 renal it was 65.9 µM; in the test with SNB-19 CNS, over 100 µM.

On to `CC(C)(C)NC1=NC(C(F)(F)F)(C(F)(F)F)NC(=O)N1`, for which the TGI in the test with A549 NSCLC, in the test on UO-31 renal, in the test on MCF7 breast, in the test on HOP-92 NSCLC, in the test with ACHN renal and in the test with SF-268 CNS was over 100 µM in each case. The TGI in the test on SF-539 CNS, with MALME-3M melanoma, with TK-10 renal and with SNB-19 CNS was over 100 µM each time.

As for `CC(=O)OCC1OC(n2cnc3nc(Br)[nH]c(=O)c32)C(OC(C)=O)C1OC(C)=O` (stereo not given), the TGI in the test with A549 NSCLC, in the test with UO-31 renal, in the test on MCF7 breast, with HOP-92 NSCLC, with ACHN renal and in the test on SF-268 CNS was over 100 µM throughout. Besides, the TGI with SF-539 CNS, with MALME-3M melanoma, with TK-10 renal and with SNB-19 CNS was over 100 µM in each case.

As to `COc1ccc2c(c1)CC[C@@H]1C2CC[C@]2(C)C(=O)N(CCN(C)C)C(=O)CC12` (stereo not given in full), the TGI with A549 NSCLC, in the test with UO-31 renal, in the test with MCF7 breast, with HOP-92 NSCLC, in the test on ACHN renal and in the test with SF-268 CNS was over 100 µM throughout. Moreover, the TGI with SF-539 CNS, in the test with MALME-3M melanoma, in the test on TK-10 renal and in the test on SNB-19 CNS was over 100 µM each time.

In the case of `COC(=O)C(Cc1ccccc1)NC(=O)C(CS)NC(=O)OC(C)(C)C` (stereo not drawn) (Boc-Cys-Phe-OMe; configuration not given here), the TGI in the test on A549 NSCLC, in the test on UO-31 renal, in the test on MCF7 breast, in the test on HOP-92 NSCLC, in the test with ACHN renal and in the test with SF-268 CNS was over 100 µM each time. Moreover, the TGI in the test with SF-539 CNS, in the test on MALME-3M melanoma, with TK-10 renal and in the test with SNB-19 CNS was over 100 µM each time.

Take `CC(C)NC(=O)OCc1c(COC(=O)NC(C)C)c(-c2ccc[n+](COC(=O)Cc3ccccc3)c2)n2c1CCC2`: the TGI in the test with A549 NSCLC is over 100 µM; with UO-31 renal it was 70.8 µM; in the test with MCF7 breast, over 100 µM; in the test with HOP-92 NSCLC, 46.2 µM; with ACHN renal it was 48.4 µM; in the test on SF-268 CNS, 68 µM. Also, the TGI is over 100 µM in the test on SF-539 CNS, 97.2 µM in the test with MALME-3M melanoma, over 100 µM with TK-10 renal and over 100 µM in the test on SNB-19 CNS.

For `Cn1cnc(N2CCCC2)c(C#N)c1=S`, the TGI in the test with A549 NSCLC is over 100 µM; in the test with UO-31 renal, 70.3 µM; in the test with MCF7 breast, over 100 µM; in the test with HOP-92 NSCLC it was over 100 µM; in the test on ACHN renal, over 100 µM; in the test on SF-268 CNS it was over 100 µM. The TGI with SF-539 CNS, in the test on MALME-3M melanoma, in the test with TK-10 renal and with SNB-19 CNS was over 100 µM in each case.
